Assay results from ChEMBL document CHEMBL1136073, “2,4-Dicarboxy-pyrroles as selective non-competitive mGluR1 antagonists: further characterization of 3,5-dimethyl pyrrole-2,4-dicarboxylic acid 2-propyl ester 4-(1,2,2-trimethyl-propyl) ester and structure-activity relationships” (Bioorg Med Chem Lett, 2003).

Target: T1, Metabotropic glutamate receptor 1 (Rattus norvegicus, UniProt P23385)
Assay: In vitro inhibition of rat Metabotropic glutamate receptor 1 in CHO cells using the CDP-DAG accumulation method: Not active uM; call rule not given here
Format: cell-based

T1 sequence (P23385 whole entry): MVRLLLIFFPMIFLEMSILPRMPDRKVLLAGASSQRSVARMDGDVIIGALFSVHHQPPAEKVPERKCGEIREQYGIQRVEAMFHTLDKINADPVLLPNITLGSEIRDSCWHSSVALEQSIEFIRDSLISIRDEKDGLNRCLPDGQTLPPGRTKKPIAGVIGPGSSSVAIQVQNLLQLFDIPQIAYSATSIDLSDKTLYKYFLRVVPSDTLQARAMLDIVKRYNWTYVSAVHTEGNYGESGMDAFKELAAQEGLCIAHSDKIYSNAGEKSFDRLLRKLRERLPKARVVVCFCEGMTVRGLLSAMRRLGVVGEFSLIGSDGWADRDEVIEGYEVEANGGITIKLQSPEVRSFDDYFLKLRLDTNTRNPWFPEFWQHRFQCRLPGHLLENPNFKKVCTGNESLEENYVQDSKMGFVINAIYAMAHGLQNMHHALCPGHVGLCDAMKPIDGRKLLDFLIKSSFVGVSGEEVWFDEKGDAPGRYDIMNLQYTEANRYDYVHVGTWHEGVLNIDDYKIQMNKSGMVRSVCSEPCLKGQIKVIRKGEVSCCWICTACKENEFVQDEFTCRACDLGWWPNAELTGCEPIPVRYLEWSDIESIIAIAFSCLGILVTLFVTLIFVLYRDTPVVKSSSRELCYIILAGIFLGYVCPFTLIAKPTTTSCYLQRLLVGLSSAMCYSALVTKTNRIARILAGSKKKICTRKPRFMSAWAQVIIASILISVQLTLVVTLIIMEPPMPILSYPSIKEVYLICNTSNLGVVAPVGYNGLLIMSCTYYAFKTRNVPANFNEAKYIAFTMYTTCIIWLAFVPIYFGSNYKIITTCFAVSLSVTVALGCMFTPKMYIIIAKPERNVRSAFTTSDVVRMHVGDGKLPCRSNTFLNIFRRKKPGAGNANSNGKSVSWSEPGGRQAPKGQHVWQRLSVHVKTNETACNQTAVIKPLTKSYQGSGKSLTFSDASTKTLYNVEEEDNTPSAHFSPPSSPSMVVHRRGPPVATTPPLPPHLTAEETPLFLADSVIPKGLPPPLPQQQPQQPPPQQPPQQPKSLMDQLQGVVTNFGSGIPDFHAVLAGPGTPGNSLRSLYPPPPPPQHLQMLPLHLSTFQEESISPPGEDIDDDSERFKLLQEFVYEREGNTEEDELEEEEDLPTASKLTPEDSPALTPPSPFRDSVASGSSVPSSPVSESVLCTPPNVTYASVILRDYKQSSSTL

Row | IC50 | SMILES
1 | Not Active | CCCOC(=O)c1c(C)c(C(=O)OC(C)(C)C)c(C)n1CCCO[Si](c1ccccc1)(c1ccccc1)C(C)(C)C
2 | Not Active | CCCOC(=O)c1[nH]c(CN)c(C(=O)OC(C)(C)C)c1C
3 | Not Active | CCCOC(=O)c1c(C)c(C(=O)OC(C)(C)C)c(C)n1CC(=O)O
4 | Not Active | CCCOC(=O)c1[nH]c(C(=O)O)c(C(=O)OC(C)(C)C)c1C
5 | Not Active | CCCOC(=O)c1c(C)c(C(=O)OC(C)(C)C)c(C)n1CN1CCCCC1
6 | Not Active | CCCOC(=O)c1[nH]c(CNCc2ccccc2)c(C(=O)OC(C)(C)C)c1C
7 | Not Active | CCCOC(=O)c1c(C)c(C(=O)OC(C)(C)C)c(C)n1CC(=O)N(C)C
8 | Not Active | CCCOC(=O)c1c(C)c(C(=O)OC(C)(C)C)c(C)n1CCO[Si](c1ccccc1)(c1ccccc1)C(C)(C)C
9 | Not Active | Cc1c(C(=O)OC(C)(C)C)c[nH]c1C(=O)O

Target: T1, Metabotropic glutamate receptor 1
Assay: In vitro inhibitory concentration required against rat mGluR1a in CHO cells using the CDP-DAG accumulation method: Not active uM
Format: cell-based

Row | IC50 | SMILES
10 | Not Active | CCCOC(=O)c1c(C)c(C(=O)OC(C)(C)C)c(C)n1CCN1CCOCC1
11 | Not Active | C=CCN1CCN(CCn2c(C)c(C(=O)OC(C)(C)C)c(C)c2C(=O)OCCC)CC1

Target: T1, Metabotropic glutamate receptor 1
Assay: In vitro inhibition of rat metabotropic glutamate receptor 1 in CHO cells using the CDP-DAG accumulation method.
Format: cell-based

Row | IC50 | SMILES
12 | 2500 nM | CCCOC(=O)c1[nH]c(C(=O)NCC2CC2)c(C(=O)OC(C)(C)C)c1C
13 | 160 nM | CCCOC(=O)c1[nH]c(Cl)c(C(=O)OC(C)C(C)(C)C)c1C (stereo unspecified)
14 | 2700 nM | CCCOC(=O)c1[nH]c(COC(C)=O)c(C(=O)OC(C)(C)C)c1C
15 | 75 nM | CCCOC(=O)c1[nH]cc(C(=O)OC(C)(C)C)c1C
16 | 720 nM | Cc1c(C(=O)OC(C)C(C)(C)C)c[nH]c1C(=O)Oc1cccnc1 (stereo unspecified)
17 | 3000 nM | Cc1c(C(=O)OC(C)(C)C)c[nH]c1C(=O)Sc1ccccn1
18 | 3200 nM | CCCOC(=O)c1[nH]c(C(=O)OC)c(C(=O)OC(C)(C)C)c1C
19 | 48 nM | Cc1c(C(=O)OC(C)(C)C)c[nH]c1C(=O)OCC1CC1
20 | 2000 nM | CCCOC(=O)c1[nH]c(C=O)c(C(=O)OC(C)(C)C)c1C
21 | 390 nM | Cc1c(C(=O)OC(C)C(C)(C)C)c[nH]c1C(=O)OC(C)CN(C)C (stereo unspecified)
22 | 340 nM | CCOC(=O)c1[nH]cc(C(=O)OC(C)(C)C)c1C
23 | 4 nM | CCCOC(=O)c1[nH]cc(C(=O)OC(C)C(C)(C)C)c1C (stereo unspecified)
24 | 17 nM | Cc1c(C(=O)OC(C)C(C)(C)C)c[nH]c1C(=O)OC(C)(C)C (stereo unspecified)
25 | 3200 nM | CCCOC(=O)c1[nH]c(C(=O)Sc2ccccn2)c(C(=O)OC(C)(C)C)c1C
26 | 15800 nM | CCCOC(=O)c1[nH]c(C)c(C(=O)OC(C)C(C)(C)C)c1C (stereo unspecified)
27 | 1450 nM | Cc1c(C(=O)OC(C)C(C)(C)C)c[nH]c1C(=O)Oc1ccncn1 (stereo unspecified)
28 | 260 nM | CCN1CCC(OC(=O)c2[nH]cc(C(=O)OC(C)C(C)(C)C)c2C)C1 (stereo unspecified)
29 | 1200 nM | Cc1c(C(=O)OC(C)(C)C)c[nH]c1C(=O)OCc1ccco1
30 | 7900 nM | CCCOC(=O)c1[nH]c(CO)c(C(=O)OC(C)(C)C)c1C
31 | 12600 nM | C=CCOC(=O)Cn1c(C)c(C(=O)OC(C)(C)C)c(C)c1C(=O)OCCC
32 | 100 nM | Cc1c(C(=O)OC(C)(C)C)c[nH]c1C(=O)OC(C)(C)C
33 | 160 nM | Cc1c(C(=O)OC(C)C(C)(C)C)c[nH]c1C(=O)Oc1c(F)c(F)c(F)c(F)c1F (stereo unspecified)
34 | 5800 nM | CCCOC(=O)c1c(C)c(C(=O)OC(C)(C)C)c(C)n1CCCO

Target: T1, Metabotropic glutamate receptor 1
Assay: In vitro inhibitory concentration required against rat mGluR1a in CHO cells using the CDP-DAG accumulation method
Format: cell-based

Row | IC50 | SMILES
35 | 2300 nM | CCCOC(=O)c1c(C)c(C(=O)OC(C)(C)C)c(C)n1C(=O)OC(C)(C)C
36 | 1000 nM | CCCOC(=O)c1c(C)c(C(=O)OC(C)(C)C)c(C)n1C
